Results as given in patent publication US7071168B2, “Anti-cancer compounds and methods related thereto” (The Regents of the University of Colorado, priority 1998, dated 2006).

Assays:
[1] = target: T1, cloned human bradykinin B2 receptors (Homo sapiens, UniProt P30411); assay: Anti-bradykinin activity on cloned human B2 receptors (CHO cells, Cytosensor microphysiometer); assay type: cell-based; conditions: higher numbers indicate higher potency
T1 sequence (P30411 1-391): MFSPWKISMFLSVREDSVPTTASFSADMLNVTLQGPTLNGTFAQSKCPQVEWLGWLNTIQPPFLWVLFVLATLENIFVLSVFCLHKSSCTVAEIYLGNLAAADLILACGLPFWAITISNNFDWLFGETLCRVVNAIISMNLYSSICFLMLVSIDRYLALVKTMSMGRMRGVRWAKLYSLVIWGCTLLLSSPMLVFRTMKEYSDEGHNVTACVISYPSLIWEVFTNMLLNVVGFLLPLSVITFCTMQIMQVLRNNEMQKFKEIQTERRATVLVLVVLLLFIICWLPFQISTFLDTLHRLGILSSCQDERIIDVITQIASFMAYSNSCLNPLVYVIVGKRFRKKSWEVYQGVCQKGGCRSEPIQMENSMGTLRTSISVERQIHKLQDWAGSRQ
Description: In general, Anti-bradykinin activity was determined by the classical guinea pig ileum assay and on Chinese hamster ovary (CHO) cells expressing cloned human bradykinin B2 receptors. Anti-tumor activity was determined on cultured human cancer cell lines using the standard tetrazolium (MTT) assay.
Chinese hamster ovary cells containing cloned and expressed human bradykinin B2 receptors were grown in cell cups of the Cytosensor microphysiometer in Ham's F-12 medium supplemented with sodium pyruvate and 10% FBS (Gibco 11765-054). For assay the cells were transferred to Ham's F-12 without bicarbonate or serum (Gibco 21700-075) and placed in the Cytosensor. Concentration-response curves were constructed to bradykinin in the presence or absence of new compounds.

[2] = test system: bradykinin response of isolated guinea pig ileum; assay: Anti-bradykinin activity on isolated guinea pig ileum; conditions: higher numbers indicate higher potency
In short: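 Terminal ileum segments (25 mm) from overnight-fasted male Hartley guinea pigs, in Krebs' solution gassed with 95% O2/5% CO2 under 1 g tension, equilibrated 1 h. Bradykinin concentration-effect curves constructed without and with test compounds.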

SCLC strain SHP-77 = assay: Colorimetric tetrazolium (MTT) assay for cell survival, SCLC strain SHP-77; assay type: cell-based, human
In short: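 MTT assay: cells seeded overnight, treated in triplicate across a concentration range for 4 days at 37 °C, 5% CO2. On day 5, MTT was added for 4 h; formazan was dissolved in acidified isopropanol and absorbance read.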

[3] = cloned human B2 receptors, pD2 for bradykinin is 11
[4] = isolated guinea pig ileum, pD2 of bradykinin is 7.4

Row | Molecule | HUMAN: pA2 for bradykinin antagonist potency on cloned human B2 receptors ([1]; Table 1) | GPI: pA2 for bradykinin antagonist activity on isolated guinea pig ileum ([2]; Table 1) | MTT: ED50 for killing of SCLC strain SHP-77 in vitro (SCLC strain SHP-77; Table 1, SHP-77, MTT, 4 days) | HUMAN: pA2 for bradykinin antagonist potency on cloned human B2 receptors [1, 3] | MTT: ED50 for killing of SCLC strain SHP-77 in vitro (SCLC strain SHP-77; SCLC strain SHP-77 in vitro) | GPI: pA2 for bradykinin antagonist activity on isolated guinea pig ileum [2, 4]
1 | DDD-(DArg-2Nal-Arg-NH2)2 [M510] | 11 | Inact | 8 µM |  |  | 
2 | CN(C)c1ccc(CNC(=O)C(Cc2ccc3ccccc3c2)NC(=O)C=Cc2c(F)c(F)c(F)c(F)c2F)cc1 (stereo not shown) [M536] |  |  |  | Inact | 4 µM | 
3 | CC1(C)CC(NC(=O)C(Cc2csc3ccccc23)NC(=O)C=Cc2cccs2)CC(C)(C)N1 (stereo not shown) [M476] |  |  |  | Inact | 15 µM | 4.6
4 | CC1(C)CC(NC(=O)[C@H](Cc2ccc3ccccc3c2)NC(=NC2CCCCC2)NC2CCCCC2)CC(C)(C)N1 [M222] |  |  |  | Inact | 15 µM | 6.8
5 | CC1(C)CC(NC(=O)C(NC(=O)C=Cc2ccc(NC(=O)CCCCCCCCCCC(=O)Nc3ccc(C=CC(=O)NC(C(=O)NC4CC(C)(C)NC(C)(C)C4)C4Cc5ccccc5C4)cc3)cc2)C2Cc3ccccc3C2)CC(C)(C)N1 (stereo not shown) [M294] |  |  |  | 10.3 | 1.8 µM | Inact
6 | DDD-(DArg-Arg-Aud-Pac-2Nal-Arg)2 [M516] | Ag | 0 | 1.4 µM |  |  | 
7 | DDD-(Eac-Arg-DIgl-Oic-Arg-OMe)2 [M608] | Inact |  | 13 µM |  |  | 
8 | CN(C)c1ccc(C=CC(=O)NC(Cc2ccc3ccccc3c2)C(=O)N2CCSCC2)cc1 (stereo not shown) [M478] |  |  |  | Inact | 30 µM | 5.1
9 | O=C(C=Cc1cccnc1)NC(Cc1ccc2ccccc2c1)C(=O)NC1CCCCC1 (stereo not shown) [M408] |  |  |  | 11.5 | 22 µM | 4.6
10 | CC1(C)CC(NC(=O)[C@H](Cc2ccc3ccccc3c2)NC(=O)C=Cc2ccc(NC(=O)CCCCCCCCCCC(=O)Nc3ccc(C=CC(=O)N[C@@H](Cc4ccc5ccccc5c4)C(=O)NC4CC(C)(C)NC(C)(C)C4)cc3)cc2)CC(C)(C)N1 [M310] |  |  |  | Inact | 1.2 µM | 5.1
11 | O=C(C=Cc1ccc(NC(=O)CCCCCCCCCCC(=O)Nc2ccc(C=CC(=O)NC(Cc3ccc4ccccc4c3)C(=O)NC3CCNCC3)cc2)cc1)NC(Cc1ccc2ccccc2c1)C(=O)NC1CCNCC1 (stereo not shown) [M606] |  |  |  | 10 | 30 µM | 5.0
12 | CN(C)c1ccc(C=CC(=O)NC(Cc2ccc(OCc3c(Cl)cccc3Cl)cc2)C(=O)NC2CC(C)(C)NC(C)(C)C2)cc1 (stereo not shown) [M582] |  |  |  | 9.5 | 3 µM | 5.4
13 | CC1(C)CC(NC(=O)C(NC(=O)C=Cc2ccc(NC(=O)CCCCCCCCC(=O)O)cc2)C2Cc3ccccc3C2)CC(C)(C)N1 (stereo not shown) [M586-B] |  |  |  | 12.3 | 40 µM | 
14 | CN1CCN(NC(=O)C(Cc2ccc3ccccc3c2)NC(=O)C=Cc2c(F)c(F)c(F)c(F)c2F)CC1 (stereo not shown) [M470] |  |  |  | Inact | 11 µM | 5.2
15 | CC1(C)CC(NC(=O)[C@H](CC(=O)O)NC(=O)[C@H](Cc2ccc3ccccc3c2)NC(=O)CCCCCCCCCCC(=O)N[C@@H](Cc2ccc3ccccc3c2)C(=O)N[C@@H](CC(=O)O)C(=O)NC2CC(C)(C)NC(C)(C)C2)CC(C)(C)N1 [M432] |  |  |  | 10 | 70 µM | 
16 | COC(=O)CCCCCCCCC(=O)Nc1ccc(C=CC(=O)NC(C(=O)NC2CC(C)(C)NC(C)(C)C2)C2Cc3ccccc3C2)cc1 (stereo not shown) [M586-A] |  |  |  | 12 | 15 µM | 5.3
17 | Cc1ccc(CSCC(NC(=O)C=Cc2c(F)c(F)c(F)c(F)c2F)C(=O)NC2CC(C)(C)NC(C)(C)C2)cc1 (stereo not shown) [M456] |  |  |  | Inact | 4.7 µM | 5.3
18 | CN(C)CCCNC(=O)C(Cc1ccc2ccccc2c1)NC(=O)C=Cc1c(F)c(F)c(F)c(F)c1F (stereo not shown) [M526] |  |  |  | Inact | 10 µM | 5.4
19 | F5c-2Nal-Arg-NH2 [M450] | Inact | 4.9 | 26 µM |  |  | 
20 | DDD-(Arg-DIgl-Oic-Arg-OMe)2 [M598] | 10 |  | 13 µM |  |  | 
21 | O=C(C=Cc1cccnc1)Nc1ccc(C(=O)NC(Cc2ccc3ccccc3c2)C(=O)O)cc1 (stereo not shown) [M422] |  |  |  | Inact | 52 µM | 
22 | CC1(C)CC(NC(=O)C(Cc2ccc(OCc3c(Cl)cccc3Cl)cc2)NC(=O)C(C#N)=Cc2ccc(O)cc2)CC(C)(C)N1 (stereo not shown) [M602] |  |  |  | 10.8 | 12 µM | 
23 | CN(C)c1cccc2c(S(=O)(=O)NC(Cc3ccc(OCc4ccccc4)cc3)C(=O)NC3CC(C)(C)NC(C)(C)C3)cccc12 (stereo not shown) [M574] |  |  |  | Inact | 4.5 µM | 
24 | O=C(C=Cc1cccnc1)NC(Cc1ccc2ccccc2c1)C(=O)Nc1cccc(CO)c1 (stereo not shown) [M474] |  |  |  | Inact | 35 µM | 
25 | Leu-Leu-DTrp-Phe-DTrp-DNMF-Eac2-DArg-Arg-Pro-Hyp-Gly-Igl-Ser-Digl-Oic-Arg [B10162] |  | 6.3 | 7 µM |  |  | 
26 | DDD-(DArg-OC2Y-Arg)2 [M518] | 10 |  | 15 µM |  |  | 
27 | CC1(C)CC(NC(=O)[C@@H](Cc2ccc3ccccc3c2)NC(=NC2CCCCC2)NC2CCCCC2)CC(C)(C)N1 [M262] |  |  |  |  | 6 µM | 5.3
28 | DDD-(DArg-Arg-Add-Ser-DIgl-PFF-Arg)2 [M864] |  | Inact | 1.8 µM |  |  | 
29 | CC1(C)CC(NC(=O)[C@@H](NC(=NC2CCCCC2)NC2CCCCC2)C2Cc3ccccc3C2)CC(C)(C)N1 [M236] |  |  |  |  | >50 µM | 4.7
